Test system: angiogenesis from the choroid plexus
Assay: Laser-induced angiogenesis from the choroid plexus (AMD model), administration into the vitreous body
Assay type: in vivo, mouse
Conditions: for suppressive effect on AMD onset (FIG. 2): figure legend FIG. 2, old mice, administration into vitreous body after laser irradiation
Description: Laser light (power: 200 mW, exposure time: 0.10 seconds, wavelength: 532 nm) was irradiated in 4 to 5 spots onto male young (8 to 12 weeks) and old (44 to 48 weeks) BLT1^+/+ mice and BLT1^−/− mice, and after 7 days, the eyes were isolated and fixed using a phosphate buffered saline (PBS) containing 4% paraformaldehyde (PFA), the cornea, lens, and retina were removed, and then fixed again using 4% PFA/PBS. The ocular tissue containing the retinal pigment epithelia and choroid plexus were immersed in PBS containing methanol in order of 50%, 75%, 100%, 75%, 50%, and 25% to remove water, and then incubated at 4° C. for 1 hour in a blocking solution (1% bovine blood serum albumin, phosphate buffered saline containing 0.1% Triton X-100), and then stained overnight at 4° C. using isolectin B4 (IB4, […]) labeled with FITC. Incisions were made in the samples and the samples were molded on a slide glass, sealed with a mounting agent containing an antifading reagent, and then a cover glass was placed thereon to produce a flat mount. A three-dimensional IB4 positive blood vessels image was captured using a confocal microscope, and the volume of angiogenesis that occurred in each mouse was measured.
Immediately after laser light irradiation of C57BL/6 background old mice purchased (Japan SLC, wild mice, 40 weeks or older, male), DMSO (final: 0.1%, diluted with PBS), CP105696 (where in the formula (1), R^1=phenyl and R^2=1-carboxycyclopentyl group) which is a BLT1 antagonist, or zileuton, bestatin, or MK886 each of which is an inhibitor for LTB4 production-related enzyme was administered into a vitreous body of each mouse. Similar to Test Example 1, angiogenesis from the choroid plexus was evaluated 7 days after laser irradiation.

Row | Compound | angiogenesis volume (C57BL/6 background old mice (40 weeks or older, male), administered into vitreous body immediately after laser irradiation, evaluated 7 days after laser irradiation) | suppressive effect on AMD onset (FIG. 2)
1 | O=C(O)C1(c2ccc3c(c2)OC[C@H](Cc2ccc(-c4ccccc4)cc2)[C@H]3O)CCCC1 [CP 105696, 1-[(3S,4R)-4-hydroxy-3-[(4-phenylphenyl)methyl]chroman-7-yl]cyclopentane-1-carboxylic acid] | significantly reduced in a concentration-dependent manner | suppressive effect
2 | CC(C)c1ccc2c(c1)c(SC(C)(C)C)c(CC(C)(C)C(=O)O)n2Cc1ccc(Cl)cc1 [MK886] | – | suppressive effect
3 | CC(C)C[C@H](NC(=O)[C@@H](O)[C@H](N)Cc1ccccc1)C(=O)O [bestatin, N-[(2S,3R)-3-amino-2-hydroxy-4-phenylbutyryl]-L-leucine] | – | suppressive effect
4 | CC(c1cc2ccccc2s1)N(O)C(N)=O (centres unmarked) [zileuton, N-[1-(1-benzothien-2-yl)ethyl]-N-hydroxyurea] | – | suppressive effect
